The values that follow come from patent US9663486B2, “Selectively substituted quinoline compounds” (EISAI R&D MANAGEMENT CO., LTD., priority 2013, dated 2017).

The test system of one assay is Human TLR7/8. Nature of the assay: Human PBMC cell-based assay, TLR7/8 (RNA-Ig), cytokine ELISA. The following applies: PBMC assay data summary; ligand and analyte not given; read-out: Human PBMCs IC50. As to the method: Human peripheral blood mononuclear cells (PBMC) were isolated from freshly-drawn heparinized (10 USP units/ml, Hospira, Lakeforest, Ill.) healthy donor whole blood by density gradient (Histopaque® 1077, Sigma, Inc., St. Louis, Mo.). Briefly, 25 ml blood was diluted with 15 ml PBS (without Ca^2+, Mg^2+) in a 50 ml conical tube, and 12 ml Histopaque was underlaid using a spinal needle. Tubes were centrifuged for 45 minutes at 1200 rpm (350×g), and PBMC were collected from the buffy coat. Cells were then washed twice in PBS, and red blood cells were lysed by suspension in 5 ml ammonium chloride solution (1× Red Blood Cell Lysis Buffer, eBioscience) for 5 minutes at room temperature. After a final wash in PBS, PBMC were resuspended at a final concentration of 2×10^6/ml in RPMI-1640 media with L-glutamine (Invitrogen) and supplemented with 25 mM HEPES (Mediatech, Inc, Manassas Va.), 10% fetal bovine serum (HyClone, Logan, Utah), and Penicillin-Streptomycin-Glutamine (Mediatech) and plated at 100 ul/well (2×10^5 cells/well) in tissue culture treated 96-well plates (Falcon).
Antagonist compounds solubilized and serial diluted in 100% DMSO were added in triplicate to cells to yield a final concentration of 0.1% DMSO (v/v). Hydroxychloroquine (Acros Organics) solubilized and serial diluted in PBS was added in triplicate to cells. PBMC were incubated with antagonist compounds or HCQ for 30 minutes at 37° C., 5% CO2 before adding various TLR agonist reagents in 100 ul complete media per well as follows (final concentrations indicated): R848 (Resiquimod; GLSynthesis, Worcester, Mass.) at 1 uM for TLR7 and TLR8, Pam3CSK4 (InvivoGen) at 50 ng/ml for TLR1/2, LPS (Sigma) at 10 ng/ml for TLR4, and CpG-2216 (InvivoGen) at 5 ug/ml for TLR9. […] The resulting “RNA-Ig” stimulus was incubated at room temperature for 15-30 minutes before adding to cells. PBMC were incubated with the various TLR agonists for 20 hours at 37° C., 5% CO2. Cell culture supernatants were collected, and levels of various human cytokines were assessed as indicated by standard ELISA procedure according to the manufacturer's recommended protocol (BD Biosciences, Inc., San Diego, Calif.).

The target in a further assay is T1, mouse TLR7 (Mus musculus, UniProt P58681).
T1 construct: tissue Jackson Labs; host or cells: live female BALB/c mice
T1 sequence (P58681 27-1050): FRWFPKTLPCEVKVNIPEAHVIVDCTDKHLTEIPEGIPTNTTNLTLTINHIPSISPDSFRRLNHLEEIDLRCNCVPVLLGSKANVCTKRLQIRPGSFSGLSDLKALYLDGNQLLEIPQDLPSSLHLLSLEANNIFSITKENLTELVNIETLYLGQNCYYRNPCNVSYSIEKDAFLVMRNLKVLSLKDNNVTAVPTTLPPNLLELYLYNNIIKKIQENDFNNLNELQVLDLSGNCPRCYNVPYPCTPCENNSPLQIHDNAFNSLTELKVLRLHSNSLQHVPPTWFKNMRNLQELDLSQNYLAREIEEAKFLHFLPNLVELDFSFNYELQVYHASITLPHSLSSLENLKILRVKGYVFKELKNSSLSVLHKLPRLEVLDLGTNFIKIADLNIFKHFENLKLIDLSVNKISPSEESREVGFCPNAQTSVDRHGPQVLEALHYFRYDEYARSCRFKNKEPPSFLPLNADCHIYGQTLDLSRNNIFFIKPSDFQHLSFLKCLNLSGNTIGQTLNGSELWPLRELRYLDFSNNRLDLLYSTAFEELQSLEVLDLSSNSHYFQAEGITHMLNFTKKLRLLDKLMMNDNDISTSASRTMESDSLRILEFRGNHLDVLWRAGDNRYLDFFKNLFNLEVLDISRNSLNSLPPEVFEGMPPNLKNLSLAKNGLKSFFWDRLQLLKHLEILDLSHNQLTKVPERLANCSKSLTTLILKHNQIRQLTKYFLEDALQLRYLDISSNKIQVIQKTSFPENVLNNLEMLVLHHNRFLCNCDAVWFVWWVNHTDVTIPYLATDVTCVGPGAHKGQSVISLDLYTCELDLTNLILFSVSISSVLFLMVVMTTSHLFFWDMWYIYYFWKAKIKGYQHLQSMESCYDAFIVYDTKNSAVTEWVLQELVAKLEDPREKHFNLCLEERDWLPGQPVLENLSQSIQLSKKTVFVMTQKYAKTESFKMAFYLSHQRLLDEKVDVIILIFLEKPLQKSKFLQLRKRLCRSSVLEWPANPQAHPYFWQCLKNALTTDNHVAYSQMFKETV
Nature of the assay: Short-term in vivo (STIV) assay, plasma IL-6 after R848. The following applies: plasma IL-6 after R848 s.c., BALB/c mice. As for the experimental part:
To assess compound potency in vivo against mouse TLR7, a short-term in vivo (STIV) assay was utilized. Briefly, mice were orally dosed with compounds and at various time points afterwards were injected subcutaneously with agonist R848 to stimulate TLR7. The plasma IL-6 level following R848 stimulation was then measured by ELISA to assess compound potency and duration-of-action. […] Therefore, the activity of compounds in the STIV assay can be confidently attributed to their modulation of the TLR7 pathway.
Six to eight week old female BALB/c mice (Jackson Labs, Bar Harbor, Me.) were dosed by oral gavage in 200 ul volume with antagonist compounds formulated in 0.5% aqueous methyl-cellulose (Sigma, St. Louis, Mo.). At various time points afterwards, mice were injected subcutaneously (s.c.) in 100 ul volume with 15 ug R848 (Resiquimod; GLSynthesis, Worcester, Mass.) to stimulate TLR7. Blood plasma was collected by cardiac puncture, and levels of IL-6 at 1.5 hours after TLR7 stimulation were then assessed by standard ELISA procedure according to the manufacturer's recommended protocol (R&D Systems).

The mark [1] stands for this setting: 13 hr after oral dose, 33 mg/kg.
Where [2] appears, read: 13 hr after oral dose, 100 mg/kg.
[3] abbreviates: 13 hr after oral dose, 300 mg/kg.
[4] abbreviates: 24 hr after oral dose, 100 mg/kg.
The mark [5] stands for this setting: 24 hr after oral dose, 300 mg/kg.

Take `CNCC(=O)NC1CC(C)CN(c2ccc(C#N)c3ncccc23)C1` (stereo not drawn) [ER-897608]: the concentration for half-maximal inhibition (IC50) in the assay with Human TLR7/8 stood at 5 nM. For the same compound, the “% Suppression vs. Vehicle” value at mouse TLR7 (6 h after oral dose, 33 mg/kg) worked out at 98%; at mouse TLR7 (setting [1]), 56%; at mouse TLR7 (setting [2]), 84%; at mouse TLR7 (setting [3]), 98%; on mouse TLR7 (24 hr after oral dose, 33 mg/kg), 35%; at mouse TLR7 (setting [4]) it was 22%. In addition, the “% Suppression vs. Vehicle” value on mouse TLR7 (setting [5]) is on record as 95%.
With `CC1CC(NC(=O)C(O)C(C)C)CN(c2ccc(C#N)c3ncccc23)C1` (stereo not drawn) [ER-897972], the half-inhibitory concentration (IC50) in the assay on Human TLR7/8 was found to be 17 nM.
For the compound `CC1CC(NC2COC2)CN(c2ccc(C#N)c3ncccc23)C1` (stereo not drawn) [ER-899541], the IC50 in the assay with Human TLR7/8 was determined as 15 nM. Moreover, the “% Suppression vs. Vehicle” value worked out at 97% on mouse TLR7 (6 h after oral dose, 100 mg/kg) and 92% on mouse TLR7 (setting [2]).
On to `COCC(N)C(=O)NC1CC(C)CN(c2ccc(C#N)c3ncccc23)C1` (stereo not drawn) [ER-897990], for which the IC50 in the assay on Human TLR7/8 came out at 3 nM.
Take `CC(=O)NC1CC(C)CN(c2ccc(C#N)c3ncccc23)C1` (stereo not drawn) [ER-896310]: the IC50 in the assay with Human TLR7/8 turned out to be 63 nM.
Turning to `CN[C@@H]1C[C@H](C)CN(c2ccc(C#N)c3ncccc23)C1` [ER-897184], the IC50 with Human TLR7/8 turned out to be 4 nM.
Take `C[C@H]1C[C@@H](NCc2ncco2)CN(c2ccc(C#N)c3ncccc23)C1` [ER-899551]: in the assay with Human TLR7/8, the IC50 was determined as 24 nM.
Regarding `CC1CC(NC(=O)CS(C)(=O)=O)CN(c2ccc(C#N)c3ncccc23)C1` (stereo not drawn) [ER-897978], the IC50 in the assay with Human TLR7/8 came out at 14 nM.
Consider `CC1CC(NC2CCOC2)CN(c2ccc(C#N)c3ncccc23)C1` (stereo not drawn) [ER-899544], for which the IC50 in the assay on Human TLR7/8 came to 5 nM. Besides, the “% Suppression vs. Vehicle” value is on record as 97% on mouse TLR7 (6 h after oral dose, 100 mg/kg) and 94% on mouse TLR7 (setting [2]).
For `C[C@H]1C[C@@H](NS(=O)(=O)CCN)CN(c2ccc(C#N)c3ncccc23)C1` [ER-899669], in the assay on Human TLR7/8, the IC50 came out at 9 nM.
Turning to `CC1CC(NC(=O)CN)CN(c2ccc(C#N)c3ncccc23)C1` (stereo not drawn) [ER-897274], in the assay on Human TLR7/8, the IC50 was 7 nM.
Regarding `CC1CC(NC(=O)C(N)C(C)C)CN(c2ccc(C#N)c3ncccc23)C1` (stereo not drawn) [ER-897987], the IC50 in the assay with Human TLR7/8 was 12 nM.
Regarding `CC1(C)C[C@@H](N)CN(c2ccc(C#N)c3ncccc23)C1` [ER-895386], the IC50 in the assay with Human TLR7/8 stood at 17 nM.
Same read-out and setting: the figure for `CC1CC(NC(=O)c2cccc(O)c2)CN(c2ccc(C#N)c3ncccc23)C1` (stereo not drawn) [ER-897973] is 11 nM.
`C[C@H]1C[C@@H](N(C)C)CN(c2ccc(C#N)c3ncccc23)C1` [ER-889591]: the IC50 in the assay with Human TLR7/8 came to 42 nM.
With `CC(C)CC(N)C(=O)NC1CC(C)CN(c2ccc(C#N)c3ncccc23)C1` (stereo not drawn) [ER-897999], the IC50 in the assay on Human TLR7/8 amounted to 2 nM.
Turning to `CNC(C(=O)NC1CC(C)CN(c2ccc(C#N)c3ncccc23)C1)C(C)C` (stereo not drawn) [ER-898334], the half-inhibitory concentration (IC50) with Human TLR7/8 was determined as 8 nM.
Consider `CC1CC(O)CN(c2ccc(C#N)c3ncccc23)C1` (stereo not drawn) [ER-896464], for which the half-maximal inhibitory concentration (IC50) in the assay with Human TLR7/8 is 6 nM.
Regarding `C[C@H]1C[C@@H](NS(=O)(=O)CCCN(C)C)CN(c2ccc(C#N)c3ncccc23)C1` [ER-899672], the IC50 with Human TLR7/8 was found to be 3 nM. The “% Suppression vs. Vehicle” value was determined as 89% on mouse TLR7 (6 h after oral dose, 100 mg/kg) and 83% on mouse TLR7 (setting [2]).
For `CCOC(=O)CN(CC(=O)OCC)C1CC(C)CN(c2ccc(C#N)c3ncccc23)C1` (stereo not drawn) [ER-899505], the 50% inhibitory concentration (IC50) in the assay with Human TLR7/8 is 127 nM.
For `COCCNC1CC(C)CN(c2ccc(C#N)c3ncccc23)C1` (stereo not drawn) [ER-897275], in the assay with Human TLR7/8, the IC50 came to 6 nM.
In the case of `CC(C)CC(N)C(=O)NC1CC(C)CN(c2ccc(C#N)c3ncccc23)C1` (stereo not drawn) [ER-897998], the IC50 with Human TLR7/8 turned out to be 2 nM.
The same measure, in the same setting: the figure for `CC1CC(NC(=O)C(N)Cc2cccnc2)CN(c2ccc(C#N)c3ncccc23)C1` (stereo not drawn) [ER-898360] is 11 nM.
With `C[C@H]1C[C@@H](NC(=O)C2(N)COC2)CN(c2ccc(C#N)c3ncccc23)C1` [ER-899350], the 50% inhibitory concentration (IC50) with Human TLR7/8 was 67 nM.
On the same count and under the same terms, the figure for `C[C@H]1C[C@@H](NCc2cn(C)cn2)CN(c2ccc(C#N)c3ncccc23)C1` [ER-899552] is 104 nM; for `CC1CC(NC(=O)CO)CN(c2ccc(C#N)c3ncccc23)C1` (stereo not drawn) [ER-897971] it is 5 nM.
On to `CC1CC(NC(=O)C(N)c2ccccc2)CN(c2ccc(C#N)c3ncccc23)C1` (stereo not drawn) [ER-898350], for which the IC50 with Human TLR7/8 was determined as 20 nM.
As to `CCOC(=O)CNC1CC(C)CN(c2ccc(C#N)c3ncccc23)C1` (stereo not drawn) [ER-899504], the IC50 in the assay with Human TLR7/8 was 81 nM.
`CC1CC(NC(=O)C2(C)COC2)CN(c2ccc(C#N)c3ncccc23)C1` (stereo not drawn) [ER-899072]: in the assay on Human TLR7/8, the IC50 is 8 nM. For the same compound, the “% Suppression vs. Vehicle” value turned out to be 94% on mouse TLR7 (6 h after oral dose, 100 mg/kg); 34% on mouse TLR7 (setting [1]); 72% at mouse TLR7 (setting [2]); 100% at mouse TLR7 (setting [3]); 0% on mouse TLR7 (setting [4]); 78% on mouse TLR7 (setting [5]).

As a reminder, the IC50 is the point on the concentration scale where inhibition reaches its midpoint.
